Test results as given in patent US6858430B1, “Process for cultivation of algae” (Council of Scientific and Industrial Research, priority 2000, dated 2005).

Tested on: pigmented filamentous callus of Eucheuma
Assay: Enhancement of somatic embryogenesis and micro-propagule production in embedded pigmented callus cultures by plant growth regulators
Assay type: cell-based, Eucheuma striatum (=Kappaphycus alvarezii)
Conditions: 23° C., one month
Description: The production of micro-propagules clonally through somatic embryogenesis of pigmented callus has been established. The somatic embryogenesis and micro-propagule production may further be enhanced by subculturing thin section of pigmented filamentous callus blocks (2 mm×3 mm×2 mm) in 3 mm thick agar plates (0.3-0.6% agar) with PES medium as embedded cultures. The callus blocks implanted in an agar medium grew rapidly in one month and formed colored spots in an agar with abundantly growing branched filamentous pigmented callus. The newly regenerated filamentous callus from blocks eventually transformed to produce densely pigmented (dark brown colour) micro-colonies similar to somatic embryos in branches of some filaments. […] Transfer of such filamentous callus with somatic embryos from solid (agar plates) medium to liquid PES medium facilitated rapid growth and morphogenesis in micro-propagules.
The production of micro-propagules clonally through somatic embryogenesis of pigmented callus of Eucheuma has been carried out. The somatic embryogenesis and micro-propagule production may be enhanced by subculturing thin section of pigmented filamentous callus blocks (2 mm×3 mm×2 mm) in 3 mm thick agar plates (0.4% agar) with PES medium as embedded cultures at 23° C. under cool white fluorescent fights at 50 μmol photon m^−2s^−1 irradiance with a 12:12 light and dark cycle. […]

Row | Compound | production of micro-propagules / formation of somatic embryos in pigmented filamentous callus (0.1, 1.0 mg l-1 naphthalenacetic acid alone in 0.4% agar PES medium) | production of micro-propagules / formation of somatic embryos in pigmented filamentous callus (0.1 mg l-1 each of naphthalenacetic acid and 6-benzylaminopurine combined in 0.4% agar PES medium)
1 | naphthalenacetic acid | further enhanced | –
2 | c1ccc(CNc2ncnc3nc[nH]c23)cc1 [6-benzylaminopurine] | – | further enhanced
